Data from US20020016293A1 (priority 2000, published 2002).
Counter-ions that a name gives are not always drawn. Like-named read-outs stand apart in the source and are kept apart here. Non-standard residues stand in square brackets, D forms with d. Residues, ends and D or L forms follow the SMILES beside them. ξ: configuration not given here. *: point of attachment. NMeI = CC[C@H](C)[C@H](NC)C(=O)O; NMeξIle = CC[C@H](C)C(NC)C(=O)O; NMeD = CN[C@@H](CC(=O)O)C(=O)O; NMeV = CN[C@H](C(=O)O)C(C)C; Pip = O=C(O)[C@@H]1CCCCN1; Lac = C[C@H](O)C(=O)O; OtBu = CC(C)(C)O*

How the values were obtained:
[1] = cited from earlier work; for absorption (in words): oral unless stated
[2] = tested on: p-glycoprotein; conditions: cited from earlier work
[3] = tested on: multidrug resistant cells; conditions: no change in nonresistant parental cells; cited from earlier work
[4] = tested on: p-glycoprotein; conditions: cited from earlier work; remark: listed apart in the source
[5] = Plasma pharmacokinetics of flavopiridol and flavopiridol glucuronide in metastatic renal cancer patients (HPLC); type: in vivo, human
Excerpt: All patients had metastatic renal cancer. […] Written informed consent was obtained from each patient in accordance with institutional and Federal guidelines. […] Toxicity assessment was done according to the Cancer and Leukemia Group B (CALGB) expanded toxicity criteria. For grade 3 or greater diarrheal episodes, patients were given loperamide or diphenoxylate hydrochloride plus atropine sulfate (Lomotil®). If diarrhea continued, treatment with octreotide acetate was begun. […] Heparinized blood samples were drawn at 23, 47, and 71 h into the infusion. Plasma was separated immediately by centrifugation and stored at −70° C. until analysis. Chemicals were obtained from Fisher Scientific (Itasca, Ill.) and Sigma Chemical Co. (St. Louis, Mo.). Quantitation of flavopiridol and its glucuronide in plasma was performed by high-pressure liquid chromatography (HPLC). […] Louis, Mo.), and these samples were incubated for 2 h (25° C.) prior to the addition of acetonitrile. […] Human plasma for the preparation of calibration standards was purchased from the Blood Bank at the University of Chicago Hospitals. […] Plasma samples for pharmacokinetics were collected during the first cycle of treatment (at 23, 47, and 71 h). […] Data are expressed as median values and interquartile range (the range of values between the 25th and the 75th percentile of the distribution). Significance has been tested by two-sided statistical tests. […] Moreover, Fisher's exact test was used to assess the association of flavopiridol systemic metabolism with the development of diarrhea. The distribution of the metabolic ratios at 71 h was investigated by constructing a frequency distribution histogram.

[6] = Diarrhea (CALGB expanded toxicity criteria) in patients given flavopiridol, by glucuronidation phenotype; type: in vivo, human
Excerpt: Toxicity assessment was done according to the Cancer and Leukemia Group B (CALGB) expanded toxicity criteria. For grade 3 or greater diarrheal episodes, patients were given loperamide or diphenoxylate hydrochloride plus atropine sulfate (Lomotil®). If diarrhea continued, treatment with octreotide acetate was begun.
Data are expressed as median values and interquartile range (the range of values between the 25th and the 75th percentile of the distribution). Significance has been tested by two-sided statistical tests. […] For this analysis, the adjusted P<0.017 (0.05/3) was considered significant.
Poor and extensive glucuronidators had metabolic ratios lower and higher than 1.2, respectively.

[7] = FLAVO glucuronidation assay, normal human liver microsomes; type: in vitro ADME; conditions: pooled human liver microsomes, pH 7.4; pool of human liver microsomes, substrate 0.1 to 3 mM, Lineweaver-Burke
Procedure: FLAVO glucuronidation assay. Reaction conditions were optimized using a range of substrate (0.02-1 mM), human liver microsomal protein (0.25-6 mg/ml) and UDPGA (2-10 mM) concentrations, as well as varying detergents (Brij 58, OLPC, CHAPS, Triton X-100, OLPC), and incubation times (0.5-4 h). […] The final incubation volume (250 μl) contained 50 mM tris-HCl (pH 7.4), 10 mM magnesium chloride, 0.5 mM FLAVO, 3 mg/ml protein, and 3 mM UDPGA. After incubation in a shaking water bath at 37° C. for 3 h, the reaction was terminated by the addition of 1 ml of acetonitrile. […] The supernatant was spiked with 100 μl of internal standard (100 μg/ml flavone in acetonitrile), and evaporated to dryness using nitrogen gas. Control experiments were performed simultaneously by omitting UDPGA. […] Aliquots (125 μl) were analyzed by high performance liquid chromatography (HPLC; Hitachi Instruments, Inc., San Jose, Calif., USA) with UV detection (265 nm). Reversed-phase chromatography was carried out using a μBondapak Phenyl column (10 μm, 3.9×300 mm; Waters Corporation, Milford, Mass., USA), and a μBondapak Phenyl guard-pak insert (Waters Corporation, Milford, Mass., USA).
Data analysis and statistics. Results were expressed as mean ± standard deviation (SD) of a single experiment performed in triplicate. […]

[8] = tested on: neoplastic cells; conditions: in vitro; cited from earlier work
[9] = tested on: p-glycoprotein expressing cell lines; conditions: cited from earlier work

CCN1CCN(C(=O)N[C@@H](C(=O)N[C@@H]2C(=O)N3C(C(=O)O)=C(CSc4nnnn4C)CS[C@H]23)c2ccc(O)cc2)C(=O)C1=O [Cefoperazone]
eliminated by biliary secretion ([1]; human, in vivo): 70%
eliminated by urinary excretion ([1]; human, in vivo): 30%

CN(C)CCCN1c2ccccc2Sc2ccc(Cl)cc21 [Chlorpromazine hydrochloride, 10H-Phenothiazine-10-propanamine, 2-chloro-N,N-dimethyl-, mono hydrochloride]
volume of distribution after intramuscular administration ([1]; intramuscular): 21.8 L/kg

CCOC(=O)C(C)(C)Oc1ccc(Cl)cc1 [Clofibrate, propanoic acid, 2-(4-chlorophenoxy)-2-methyl-,ethyl ester]
half-life in anuria ([1]; anuria): over 100 hr
half-life, average or usual value ([1]; human, in vivo): 11 h
fraction metabolized ([1]; mostly to a glucuronide conjugate): About 60%

O=C1CN=C(c2ccccc2Cl)c2cc([N+](=O)[O-])ccc2N1 [Clonazepam, 2H-1,4-Benzodiazepin-2-one, 5-(2-chlorophenyl)-1,3-dihydro-7-nitro-]
therapeutic plasma levels ([1]; human, in vivo): 20 to 80 ng/mL

OCCN1CCN(CCCN2c3ccccc3Sc3ccc(C(F)(F)F)cc32)CC1 [Fluphenazine hydrochloride]
absorption (in words) [1]: absorbed rapidly

CCOC(=O)C1=C(C)NC(C)=C(C(=O)OC)C1c1cccc([N+](=O)[O-])c1 (centres unmarked) [Nitrendipine, 3,5-Pyridinedicarboxylic acid, 1,4-dihydro-2,6-dimethyl-4-(3-nitrophenyl)-, ethyl methyl ester]
bound to plasma protein ([1]; human, in vivo): About 98%
half-life, average or usual value ([1]; human, in vivo): 12 h

CCC1(c2ccccc2)C(=O)NC(=O)NC1=O [Phenobarbital, 2,4,6(1H,3H,5H)-Pyrimidinetrione, 5-ethyl-5-phenyl-]
fraction of an oral dose absorbed ([1]; human, in vivo, po): Approximately 80%
therapeutic plasma levels ([1]; human, in vivo): 10000 to 30000 ng/mL
time to peak plasma levels ([1]; human, in vivo): 16 to 18 h

O=C1NC(=O)C(c2ccccc2)(c2ccccc2)N1.[Na] [Phenytoin Sodium, 2,4-Imidazolidinedione, 5,5-diphenyl-, monosodium salt]
lethal plasma levels ([1]; human, in vivo): ~100 µg/mL

CCCN(CCC)S(=O)(=O)c1ccc(C(=O)O)cc1 [Probenecid]
absorption (in words) [1]: completely absorbed

CC(C)NCC(O)COc1cccc2ccccc12 (centres unmarked) [Propranolol]
bound to plasma protein ([1]; human, in vivo): Approximately 90%
variability in plasma concentrations after oral administration ([1]; inter-individual): approximately 20 fold

C=C[C@H]1C[N@@]2CC[C@H]1C[C@@H]2[C@@H](O)c1ccnc2ccc(OC)cc12 [Quinidine]
elimination by hepatic biotransformation ([1]; human, in vivo): 50-60%

COC(=O)[C@H]1[C@H]2C[C@@H]3c4[nH]c5cc(OC)ccc5c4CCN3C[C@H]2C[C@@H](OC(=O)c2cc(OC)c(OC)c(OC)c2)[C@@H]1OC [Reserpine, Yohimban-16-carboxylic acid, 11,17-dimethoxy-18-[(3,4,5-trimethoxybenzoyl)oxy]-, methyl ester, (3β, 16β, 17α, 18β, 20α)-]
absorption (in words) [1]: absorbed poorly and erratically

CC[C@H](C)C1C(=O)N(C)[C@@H]([C@@H](C)CC)C(=O)NCC(=O)N(C)[C@@H](C(C)C)C(=O)N[C@@H](Cc2ccc(OC)cc2)C(=O)O[C@@H](C)C(=O)N2CCCC[C@H]2C(=O)N(C)[C@@H](C(C)C)C(=O)N[C@@H](C(C)C)C(=O)N(C)[C@@H](CC(=O)OC(C)(C)C)C(=O)N1C (some centres unmarked) [SDZ 280-446] (cyclo(G[NMeV]Y(Me)[Lac][Pip][NMeV]V[NMeD](OtBu)[NMeξIle][NMeI]))
p-glycoprotein inhibition relative to verapamil [2]: stronger inhibitors than verapamil

CC(C)(C)c1ccc(C(O)CCCN2CCC(C(O)(c3ccccc3)c3ccccc3)CC2)cc1 (stereo not drawn) [Terfenadine, 1-Piperidinebutanol, α-[4-(1,1-dimethylethyl)phenyl]-4-(hydroxydiphenylmethyl)-]
bound to plasma protein ([1]; human, in vivo): 97%
absorption (in words) [1]: absorbed rapidly and almost completely

C[C@@H]1C[C@H]2[C@@H]3CCC4=CC(=O)C=C[C@]4(C)C3=CC[C@]2(C)[C@H]1C(=O)CN1CCN(c2cc(N3CCCC3)nc(N3CCCC3)n2)CC1 [Tirilazad]
sensitization of resistant cells to killing by vinblastine [3]: 66 fold
inhibition of photoaffinity labeling of p-glycoprotein relative to verapamil [4]: more effectively than does verapamil

CN1CC[C@H](c2c(O[C@@H]3O[C@H](C(=O)O)[C@@H](O)[C@H](O)[C@H]3O)cc(O)c3c(=O)cc(-c4ccccc4Cl)oc23)[C@H](O)C1 [flavopiridol glucuronide, 7-O-β-glucopyranuronosyl-flavopiridol]
inter-patient variability of plasma level (coefficient of variation) at 23 h ([5]; human, in vivo): 83%
inter-patient variability of plasma level (coefficient of variation) at 47 h ([5]; human, in vivo): 102%
inter-patient variability of plasma level (coefficient of variation) at 71 h ([5]; human, in vivo): 107%

CN1CC[C@H](c2c(O)cc(O)c3c(=O)cc(-c4ccccc4Cl)oc23)[C@H](O)C1 [flavopiridol]
inter-patient variability of plasma level (coefficient of variation) at 23 h ([5]; 23 h): 81%
concentration at 23 h ([5]; human, plasma, intravenous, 72 h-continuous infusion 50 mg/m2/day, first cycle, 23 h into the infusion, 22 patients, read-out: median plasma concentration (interquartile range) at 23 h): 389 nM
concentration at 47 h ([5]; human, plasma, intravenous, 72 h-continuous infusion 50 mg/m2/day, first cycle, 47 h into the infusion, read-out: median plasma concentration (interquartile range) at 47 h): 412 nM
concentration at 71 h ([5]; human, plasma, intravenous, 72 h-continuous infusion 50 mg/m2/day, first cycle, 71 h into the infusion, read-out: median plasma concentration (interquartile range) at 71 h): 397 nM
extensive glucuronidators who did not develop diarrhea ([6]; extensive glucuronidators): 73%
patients with grade 1 diarrhea ([6]; first cycle): Five
patients with grade 2 diarrhea ([6]; first cycle): six
patients with grade 3 diarrhea ([6]; first cycle): two
extensive glucuronidators who did not develop diarrhea ([6]; metabolic ratio at 71 h higher than 1.2): 8 of 11
poor glucuronidators who developed diarrhea ([6]; metabolic ratio at 71 h lower than 1.2): 10 of 11
diarrhea present in poor glucuronidators of flavopiridol ([6]; poor glucuronidators): 91%
Km at 3 h [7]: 642 µM
concentrations showing differential growth inhibitory activity [8]: below 200 nM

Cc1ccc(C)c(OCCCC(C)(C)C(=O)O)c1 [gemfibrozil]
plasma concentration after 2 hours ([1]; single dose 600 mg): about 15 Ug/ml
plasma concentration after 9 hours ([1]; single dose 600 mg): ~5 Ug/ml

CC[C@H](C)[C@H]1O[C@]2(CC[C@@H]1C)C[C@@H]1C[C@@H](C/C=C(\C)[C@@H](O[C@H]3C[C@H](OC)[C@@H](O[C@H]4C[C@H](OC)[C@@H](O)[C@H](C)O4)[C@H](C)O3)[C@@H](C)/C=C/C=C3\CO[C@@H]4[C@H](O)C(C)=C[C@@H](C(=O)O1)[C@]34O)O2 [ivermectin]
time to peak concentrations in plasma ([1]; oral administration): ≤ 4 h
half-life ([1]; verapamil: normal persons): about 10 hours

OCCN1CCN(CC/C=C2\c3ccccc3Sc3ccc(C(F)(F)F)cc32)CC1 [trans-flupenthixol]
potency for reversing MDR relative to equimolar concentrations of verapamil [9]: two- to three-fold more potent
reversal of resistance to doxorubicin, vincristine, and colchicine [9]: fully reversed resistance

benzothiazepin-4(5H)-one, 3-(acetyloxy)-5-[2-(dimethylamino)ethyl]-2,3-dihydro-2-(4-methoxyphenyl)-, (+)-cis-, monohydrochloride [Diltiazem]
bound to plasma protein ([1]; human, in vivo): 70-80%
drug appearing unchanged in the urine ([1]; human, in vivo): Less than 4%
fraction of an oral dose absorbed ([1]; oral): 80%
half-life ([1]; plasma/serum/elimination half-life as printed): about 4 hr
